According to patent US20060252807A1, “Novel ortho-terphenyl inhibitors of p38 kinase and methods of treating inflammatory disorders” (Kalypsys, Inc., priority 2005, published 2006):

Target: T1, active p38 alpha enzyme (Upstate Biotechnology) (Homo sapiens, UniProt Q16539)
T1 construct: purchased Upstate Biotechnology
Assay: p38α biochemical assay (ATP turnover, luminescent detection, Cambrex PKlight)
Conditions: p38α kinase; Table 1 Biological Activity
Method in brief: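 Active p38α phosphorylates MapkapK2 whole protein with 1.4 uM final ATP, 2 h at 30C, in Tris/MOPS buffer with MgCl2, CaCl2, EGTA, EDTA, glycerol, β-mercaptoethanol and 1 mg/ml BSA. Compounds pin-delivered from DMSO; total ATP turnover read by luminescence after PKlight addition.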

T1 sequence (Q16539 whole entry): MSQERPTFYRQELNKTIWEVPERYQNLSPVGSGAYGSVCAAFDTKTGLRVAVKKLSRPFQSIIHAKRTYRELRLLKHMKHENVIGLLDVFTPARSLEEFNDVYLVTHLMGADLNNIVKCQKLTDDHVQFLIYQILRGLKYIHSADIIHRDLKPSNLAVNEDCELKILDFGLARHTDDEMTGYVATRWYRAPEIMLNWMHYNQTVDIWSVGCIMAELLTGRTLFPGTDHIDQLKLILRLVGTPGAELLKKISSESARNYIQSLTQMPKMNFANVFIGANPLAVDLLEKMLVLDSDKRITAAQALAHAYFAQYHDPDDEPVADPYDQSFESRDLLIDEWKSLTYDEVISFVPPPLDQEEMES

| Structure (SMILES) | IC50 [µM] |
| --- | --- |
| CC(C)NC(=O)c1csc(-c2oc(CN3CCCC(C(N)=O)C3)nc2-c2ccc(F)cc2)n1 (stereo not drawn) [Example 1222] | > 1 |
| CC(C)NC(=O)c1csc(-c2oc(CN3CCCCC3CCO)nc2-c2ccc(F)cc2)n1 (stereo not drawn) [Example 1223] | > 1 |
| CC(C)NC(=O)c1csc(-c2oc(CN3CCc4ccccc4C3)nc2-c2ccc(F)cc2)n1 [Example 1224] | > 1 |
| CCN(Cc1ccccc1)Cc1nc(-c2ccc(F)cc2)c(-c2nc(C(=O)NC(C)C)cs2)o1 [Example 1225] | > 1 |
| CC(C)NC(=O)c1csc(-c2oc(CN(C)CCc3ccccc3)nc2-c2ccc(F)cc2)n1 [Example 1227] | > 1 |
| CC(C)NC(=O)c1csc(-c2oc(CN(C)CCc3ccccn3)nc2-c2ccc(F)cc2)n1 [Example 1228] | > 1 |
| CC(C)NC(=O)c1csc(-c2oc(CN3CCCC4CCCCC43)nc2-c2ccc(F)cc2)n1 (stereo not drawn) [Example 1230] | > 1 |
| C=CCN(Cc1nc(-c2ccc(F)cc2)c(-c2nc(C(=O)NC(C)C)cs2)o1)C1CCCCC1 [Example 1231] | > 1 |
| COC(=O)C1CCN(Cc2nc(-c3ccc(F)cc3)c(-c3nc(C(=O)NC(C)C)cs3)o2)CC1 [Example 1232] | > 1 |
| CC(C)NC(=O)c1csc(-c2oc(CN(Cc3ccccc3)C(C)C)nc2-c2ccc(F)cc2)n1 [Example 1233] | > 1 |
| CC(C)NC(=O)c1csc(-c2oc(CN(CCO)Cc3ccccc3)nc2-c2ccc(F)cc2)n1 [Example 1234] | > 1 |
| CC(C)NC(=O)c1csc(-c2oc(CN(C)CC(O)c3ccccc3)nc2-c2ccc(F)cc2)n1 (stereo not drawn) [Example 1235] | > 1 |
| CC(C)NC(=O)c1csc(-c2oc(CN3CCC(O)(O)CC3)nc2-c2ccc(F)cc2)n1 [Example 1236] | > 1 |
| CCOC(=O)C1CCN(Cc2nc(-c3ccc(F)cc3)c(-c3nc(C(=O)NC(C)C)cs3)o2)CC1 [Example 1237] | > 1 |
| CCOC(=O)C1CCCN(Cc2nc(-c3ccc(F)cc3)c(-c3nc(C(=O)NC(C)C)cs3)o2)C1 (stereo not drawn) [Example 1238] | > 1 |
| CCOC(=O)N1CCN(Cc2nc(-c3ccc(F)cc3)c(-c3nc(C(=O)NC(C)C)cs3)o2)CC1 [Example 1239] | > 1 |
| CC(C)NC(=O)c1csc(-c2oc(CN(CCC#N)Cc3cccnc3)nc2-c2ccc(F)cc2)n1 [Example 1240] | > 1 |
| CC(C)NC(=O)c1csc(-c2oc(CN3CCN(c4ccccc4)CC3)nc2-c2ccc(F)cc2)n1 [Example 1241] | > 1 |
| CC(C)NC(=O)c1csc(-c2oc(CN3CCN(c4ccccn4)CC3)nc2-c2ccc(F)cc2)n1 [Example 1242] | > 1 |
| CCCCN(Cc1ccccc1)Cc1nc(-c2ccc(F)cc2)c(-c2nc(C(=O)NC(C)C)cs2)o1 [Example 1243] | > 1 |
| CC(C)NC(=O)c1csc(-c2oc(CN(CCO)[C@H](C)c3ccccc3)nc2-c2ccc(F)cc2)n1 [Example 1244] | > 1 |
| CC(C)NC(=O)c1csc(-c2oc(CN(CCCO)Cc3ccccn3)nc2-c2ccc(F)cc2)n1 [Example 1245] | > 1 |
| CC(C)NC(=O)c1csc(-c2oc(CN(C)CC(O)c3ccc(O)cc3)nc2-c2ccc(F)cc2)n1 (stereo not drawn) [Example 1246] | > 1 |

| Structure (SMILES) | IC50 [µM] |
| --- | --- |
| CC(C)NC(=O)c1csc(-c2oc(CN3CCN(C4CCCCC4)CC3)nc2-c2ccc(F)cc2)n1 [Example 1247] | > 1 |
| CC(C)NC(=O)c1csc(-c2oc(CN3CCC(Cc4ccccc4)CC3)nc2-c2ccc(F)cc2)n1 [Example 1248] | > 1 |
| CC(C)NC(=O)c1csc(-c2oc(CN3CCN(Cc4ccccc4)CC3)nc2-c2ccc(F)cc2)n1 [Example 1249] | > 1 |
| CC(C)NC(=O)c1csc(-c2oc(CN3CCCN(Cc4ccccc4)CC3)nc2-c2ccc(F)cc2)n1 [Example 1250] | > 1 |
| CC(C)NC(=O)c1csc(-c2oc(CN3CCN(c4ccc(O)cc4)CC3)nc2-c2ccc(F)cc2)n1 [Example 1251] | > 1 |
| CC(C)NC(=O)c1csc(-c2oc(CN(CCN(C)C)Cc3ccccc3)nc2-c2ccc(F)cc2)n1 [Example 1252] | > 1 |
| CC(C)NC(=O)c1csc(-c2oc(CN3CCN(c4ccccc4F)CC3)nc2-c2ccc(F)cc2)n1 [Example 1253] | > 1 |
| CC(C)NC(=O)c1csc(-c2oc(CN3CCN(c4ccc(F)cc4)CC3)nc2-c2ccc(F)cc2)n1 [Example 1254] | > 1 |
| CC(C)NC(=O)c1csc(-c2oc(CN3CCN(CC4CCCCC4)CC3)nc2-c2ccc(F)cc2)n1 [Example 1255] | > 1 |
| CC(C)NC(=O)c1csc(-c2oc(CN(C)C[C@H](O)c3ccc(O)c(O)c3)nc2-c2ccc(F)cc2)n1 [Example 1256] | > 1 |
| CCOC(=O)CC1C(=O)NCCN1Cc1nc(-c2ccc(F)cc2)c(-c2nc(C(=O)NC(C)C)cs2)o1 (stereo not drawn) [Example 1257] | > 1 |
| CC(C)NC(=O)c1csc(-c2oc(CN3CCN(C(=O)OC(C)(C)C)CC3)nc2-c2ccc(F)cc2)n1 [Example 1258] | > 1 |
| CC(C)NC(=O)c1csc(-c2oc(CN3CCC(NC(=O)OC(C)(C)C)C3)nc2-c2ccc(F)cc2)n1 (stereo not drawn) [Example 1259] | > 1 |
| CC(C)NC(=O)c1csc(-c2oc(CN3CCN(c4ccccc4C#N)CC3)nc2-c2ccc(F)cc2)n1 [Example 1260] | > 1 |
| CC(C)NC(=O)c1csc(-c2oc(CN3CCN(c4ccc(C#N)cn4)CC3)nc2-c2ccc(F)cc2)n1 [Example 1261] | > 1 |
| Cc1cccc(N2CCN(Cc3nc(-c4ccc(F)cc4)c(-c4nc(C(=O)NC(C)C)cs4)o3)CC2)c1C [Example 1262] | > 1 |
| Cc1cccc(N2CCN(Cc3nc(-c4ccc(F)cc4)c(-c4nc(C(=O)NC(C)C)cs4)o3)CC2C)c1 (stereo not drawn) [Example 1264] | > 1 |
| CC(C)NC(=O)c1csc(-c2oc(CN3CCN(CCc4ccccc4)CC3)nc2-c2ccc(F)cc2)n1 [Example 1265] | > 1 |
| Cc1ccc(N2CCN(Cc3nc(-c4ccc(F)cc4)c(-c4nc(C(=O)NC(C)C)cs4)o3)CC2)cc1C [Example 1266] | > 1 |
| Cc1ccc(N2CCN(Cc3nc(-c4ccc(F)cc4)c(-c4nc(C(=O)NC(C)C)cs4)o3)CC2)c(C)c1 [Example 1267] | > 1 |
| Cc1ccc(C)c(N2CCN(Cc3nc(-c4ccc(F)cc4)c(-c4nc(C(=O)NC(C)C)cs4)o3)CC2)c1 [Example 1268] | > 1 |
| COc1ccc(N2CCN(Cc3nc(-c4ccc(F)cc4)c(-c4nc(C(=O)NC(C)C)cs4)o3)CC2)cc1 [Example 1269] | > 1 |
| COc1ccccc1N1CCN(Cc2nc(-c3ccc(F)cc3)c(-c3nc(C(=O)NC(C)C)cs3)o2)CC1 [Example 1270] | > 1 |

| Structure (SMILES) | IC50 [µM] |
| --- | --- |
| COc1cccc(N2CCN(Cc3nc(-c4ccc(F)cc4)c(-c4nc(C(=O)NC(C)C)cs4)o3)CC2)c1 [Example 1271] | > 1 |
| COc1ccc(CCN(C)Cc2nc(-c3ccc(F)cc3)c(-c3nc(C(=O)NC(C)C)cs3)o2)cc1OC [Example 1272] | > 1 |
| CC(C)NC(=O)c1csc(-c2oc(CN3CCN(c4cccc(Cl)c4)CC3)nc2-c2ccc(F)cc2)n1 [Example 1273] | > 1 |
| CC(C)NC(=O)c1csc(-c2oc(CN3CCN(c4ccc(Cl)cc4)CC3)nc2-c2ccc(F)cc2)n1 [Example 1274] | > 1 |
| CC(C)NC(=O)c1csc(-c2oc(CN3CCN(c4ccc(F)cc4F)CC3)nc2-c2ccc(F)cc2)n1 [Example 1276] | > 1 |
| CC(C)NC(=O)c1csc(-c2oc(CN(Cc3cccnc3)Cc3cccnc3)nc2-c2ccc(F)cc2)n1 [Example 1277] | > 1 |
| CC(C)NC(=O)c1csc(-c2oc(CN3CCN(CCN4CCOCC4)CC3)nc2-c2ccc(F)cc2)n1 [Example 1278] | > 1 |
| CC(C)NC(=O)c1csc(-c2oc(CN3CCC(N(C)C(=O)OC(C)(C)C)C3)nc2-c2ccc(F)cc2)n1 (stereo not drawn) [Example 1279] | > 1 |
| CC(=O)c1ccc(N2CCN(Cc3nc(-c4ccc(F)cc4)c(-c4nc(C(=O)NC(C)C)cs4)o3)CC2)cc1 [Example 1280] | > 1 |
| CCN(CC)CCN(Cc1ccccc1)Cc1nc(-c2ccc(F)cc2)c(-c2nc(C(=O)NC(C)C)cs2)o1 [Example 1281] | > 1 |
| CC(C)NC(=O)c1csc(-c2oc(CN3CCN(c4ccc([N+](=O)[O-])cc4)CC3)nc2-c2ccc(F)cc2)n1 [Example 1282] | > 1 |
| CC(C)NC(=O)c1csc(-c2oc(CN(C)Cc3cccc4ccccc34)nc2-c2ccc(F)cc2)n1 [Example 1283] | > 1 |
| Cc1ccc(Cl)cc1N1CCN(Cc2nc(-c3ccc(F)cc3)c(-c3nc(C(=O)NC(C)C)cs3)o2)CC1 [Example 1284] | > 1 |
| COc1cc(CN(C)Cc2nc(-c3ccc(F)cc3)c(-c3nc(C(=O)NC(C)C)cs3)o2)cc(OC)c1OC [Example 1285] | > 1 |
| CC(C)NC(=O)c1csc(-c2oc(CN(CCc3ccccc3)Cc3ccccc3)nc2-c2ccc(F)cc2)n1 [Example 1286] | > 1 |
| CC(C)NC(=O)c1csc(-c2oc(CN(C)C(Cc3ccccc3)c3ccccc3)nc2-c2ccc(F)cc2)n1 (stereo not drawn) [Example 1288] | > 1 |
| CC(C)NC(=O)c1csc(-c2oc(CN3CCC(O)(c4ccc(Cl)cc4)CC3)nc2-c2ccc(F)cc2)n1 [Example 1289] | > 1 |
| C#CCN(Cc1nc(-c2ccc(F)cc2)c(-c2nc(C(=O)NC(C)C)cs2)o1)Cc1ccc(Cl)cc1Cl [Example 1290] | > 1 |
| CCN(Cc1nc(-c2ccc(F)cc2)c(-c2nc(C(=O)NC(C)C)cs2)o1)C(Cc1ccccc1)c1ccco1 (stereo not drawn) [Example 1291] | > 1 |
| CC(C)NC(=O)c1csc(-c2oc(CN3CCN(C(=O)OC(C)(C)C)C[C@H]3CO)nc2-c2ccc(F)cc2)n1 [Example 1292] | > 1 |
| CC(C)NC(=O)c1csc(-c2oc(CN3CCN(c4ccc(C(C)(C)C)cc4)CC3)nc2-c2ccc(F)cc2)n1 [Example 1293] | > 1 |
| CC(C)NC(=O)c1csc(-c2oc(CN3CCN(Cc4ccc5c(c4)OCO5)CC3)nc2-c2ccc(F)cc2)n1 [Example 1294] | > 1 |
| COc1cc2c(cc1OC)CN(Cc1nc(-c3ccc(F)cc3)c(-c3nc(C(=O)NC(C)C)cs3)o1)CC2 [Example 1295] | > 1 |
